# Reference: patent publication US11472798B2 (Mission Therapeutics Limited, priority 2014, dated 2022)
# Target: T1, UCHL1 (Homo sapiens, UniProt P09936)
# T1 construct: made in house; host or cells: HEK293T
# T1 sequence (P09936 1-223): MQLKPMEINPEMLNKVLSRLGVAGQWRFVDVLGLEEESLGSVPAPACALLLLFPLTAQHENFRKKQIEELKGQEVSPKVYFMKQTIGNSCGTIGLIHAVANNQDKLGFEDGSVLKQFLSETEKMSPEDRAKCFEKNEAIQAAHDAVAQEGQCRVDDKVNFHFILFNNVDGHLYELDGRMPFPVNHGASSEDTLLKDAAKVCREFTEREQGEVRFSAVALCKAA
# Assay: UCHL1 biochemical IC50 assay (fluorescence polarisation)
# Conditions: 30 min enzyme/compound pre-incubation at room temp, read after 2 hr incubation, read-out: Activity range (UCHL1 biochemical IC50 assay)
# Summary of the method: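 Fluorescence polarisation (ex 540/em 590 nm) of 50 nM TAMRA-labelled ubiquitin–peptide isopeptide substrate was read at time zero and after 2 h at room temperature. Compounds (100–0.03 μM final, in duplicate) were given 30 min preincubation with N-FLAG UCHL1 from HEK293T cells in pH 7.5 Tris buffer.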
row,IC50 [nM],SMILES
1,< 1000,"Cn1nccc1-c1ccc2nc(NC(=O)[C@H]3CCN(C#N)C3)sc2c1 [Example 123, (S)-1-cyano-N-(6-(1-methyl-1H-pyrazol-5-yl)benzo[d]thiazol-2-yl)pyrrolidine-3-carboxamide]"
2,< 1000,"N#CN1CC[C@H](C(=O)Nc2ncc(-c3ccc(F)cc3)s2)C1 [Example 66, (S)-1-cyano-N-(5-(4-fluorophenyl)thiazol-2-yl)pyrrolidine-3-carboxamide]"
3,< 1000,"N#CN1CC[C@H](C(=O)Nc2cc(C3CCOCC3)[nH]n2)C1 [Example 43, (S)-1-cyano-N-(5-(tetrahydro-2H-pyran-4-yl)-1H-pyrazol-3-yl)pyrrolidine-3-carboxamide]"
4,< 1000,"N#CN1CC[C@H](C(=O)Nc2ncc(-c3ccccc3)s2)C1 [Example 1, (S)-1-cyano-N-(5-phenylthiazol-2-yl)pyrrolidine-3-carboxamide]"
5,1000 to 10000,"N#CN1CCC(C(=O)Nc2ncc(-c3ccccc3Cl)s2)C1 (stereo not shown) [Example 6, N-(5-(2-chlorophenyl)thiazol-2-yl)-1-cyano-pyrrolidine-3-carboxamide]"
6,< 1000,"N#Cc1ccc(-n2cnc(NC(=O)[C@H]3CCN(C#N)C3)c2)cc1C(F)(F)F [Example 309, (S)-1-cyano-N-(1-(4-cyano-3-(trifluoromethyl)phenyl)-1H-imidazol-4-yl)pyrrolidine-3-carboxamide]"
7,1000 to 10000,"N#CN1CC[C@H](C(=O)Nc2cn3ccccc3n2)C1 [Example 49, (S)-1-cyano-N-N-(imidazo[1,2-a]pyridin-2-yl)-pyrrolidine-3-carboxamide]"
8,1000 to 10000,"Cc1cnc(NC(=O)C2CCN(C#N)C2)s1 (stereo not shown) [Example 7, 1-cyano-N-(5-methylthiazol-2-yl)pyrrolidine-3-carboxamide]"
9,1000 to 10000,"N#CN1CC[C@H](C(=O)Nc2cc(N3CCCC3)ccn2)C1 [Example 107, (S)-1-cyano-N-(4-(pyrrolidin-1-yl)pyridin-2-yl)pyrrolidine-3-carboxamide]"
10,< 1000,"N#CN1CC[C@H](C(=O)Nc2cn(Cc3ccccn3)cn2)C1 [Example 168, (S)-1-cyano-N-(1-(pyridin-2-ylmethyl)-1H-imidazol-4-yl)pyrrolidine-3-carboxamide]"
11,< 1000,"N#CN1CCC(C(=O)Nc2ncc(/C=C/C3CC3)s2)C1 (stereo not shown) [Example 113, (E)-1-cyano-N-(5-(2-cyclopropylvinyl)thiazol-2-yl)pyrrolidine-3-carboxamide]"
12,< 1000,"N#CN1CC[C@H](C(=O)Nc2cc(-c3ccccc3)[nH]n2)C1 [Example 42, (S)-1-cyano-N-(5-phenyl-1H-pyrazol-3-yl)pyrrolidine-3-carboxamide]"
13,1000 to 10000,"N#CN1CCC(C(=O)Nc2cc(-c3ccccc3)ccn2)C1 (stereo not shown) [Example 31, 1-cyano-N-(4-phenylpyridin-2-yl)pyrrolidine-3-carboxamide]"
14,1000 to 10000,"N#CN1C[C@@H](C(=O)Nc2ncc(-c3ccccc3)s2)[C@H](c2cncnc2)C1 (relative stereo) [Example 283, trans-1-cyano-N-(5-phenylthiazol-2-yl)-4-(pyrimidin-5-yl)pyrrolidine-3-carboxamide]"
15,< 1000,"N#CN1CC[C@H](C(=O)Nc2ncc(-c3ccc4cn[nH]c4c3)s2)C1 [Example 222, (S)-N-(5-(1H-indazol-6-yl)-2-yl)-1-cyanopyrrolidine-3-carboxamide]"
16,1000 to 10000,"Cc1noc(C)c1-c1ccc2sc(NC(=O)C3CCN(C#N)C3)nc2c1 (stereo not shown) [Example 119, 1-cyano-N-(5-(3,5-dimethylisoxazol-4-yl)benzo[d]thiazol-2-yl)pyrrolidine-3-carboxamide]"

row,IC50 [nM],SMILES
1,< 1000,"N#CN1CC[C@H](C(=O)Nc2cn(-c3ccnc4ccccc34)cn2)C1 [Example 305, (S)-1-cyano-N-(1-(quinolin-4-yl)-1H-imidazol-4-yl)pyrrolidine-3-carboxamide]"
2,< 1000,"N#CN1CC[C@H](C(=O)Nc2cn(-c3cccc(C(F)(F)F)c3)cn2)C1 [Example 154, (S)-1-cyano-N-(1-(3-(trifluoromethyl)phenyl)-1H-imidazol-4-yl)pyrrolidine-3-carboxamide]"
3,1000 to 10000,"CC1CC(C(=O)Nc2ncc(N3CCCCC3)s2)CN1C#N (stereo not shown) [Example 105, 1-cyano-5-methyl-N-(5-(piperidin-1-yl)thiazol-2-yl)pyrrolidine-3-carboxamide]"
4,< 1000,"N#Cc1ccc(-n2cnc(NC(=O)[C@H]3CCN(C#N)C3)c2)cc1OC1COC1 [Example 249, (S)-1-cyano-N-(1-(4-cyano-3-(oxetan-3-yloxy)phenyl)-1H-imidazol-4-yl)pyrrolidine-3-carboxamide]"
5,< 1000,"N#CN1CC[C@H](C(=O)Nc2nc3c(s2)CN(C(=O)c2ccccc2)CC3)C1 [Example 191, (S)—N-(5-benzoyl-4,5,6,7-tetrahydrothiazolo[5,4-c]pyridin-2-yl)-1-cyanopyrrolidine-3-carboxamide]"
6,1000 to 10000,"N#CN1CCC(C(=O)Nc2ncc(-c3cccc(Cl)c3)s2)C1 (stereo not shown) [Example 5, N-(5-(3-chlorophenyl)thiazol-2-yl)-1-cyano-pyrrolidine-3-carboxamide]"
7,< 1000,"N#CN1CC[C@H](C(=O)Nc2cc3n(n2)CCN(c2ccccc2)C3)C1 [Example 241, (S)-1-cyano-N-(5-phenyl-4,5,6,7-tetrahydropyrazolo[1,5-a]pyrazin-2-yl)pyrrolidine-3-carboxamide]"
8,< 1000,"N#CN1CC[C@H](C(=O)Nc2ncc(-c3ccc4[nH]ncc4c3)s2)C1 [Example 223, (S)-N-(5-(1H-indazol-5-yl)thiazol-2-yl)-1-cyanopyrrolidine-3-carboxamide]"
9,< 1000,"N#CN1CC[C@H](C(=O)Nc2ncc(-c3ccc(F)c(C(N)=O)c3)s2)C1 [Example 236, (S)-N-(5-(3-carbamoyl-4-fluorophenyl)thiazol-2-yl)-1-cyanopyrrolidine-3-carboxamide]"
10,1000 to 10000,"Cc1cnc(NC(=O)[C@@H]2CN(C#N)C[C@H]2C)s1 [Example 83, (3S,4S)-1-cyano-4-methyl-N-(5-methylthiazol-2-yl)pyrrolidine-3-carboxamide]"
11,< 1000,"CC(=O)N1CCc2nc(NC(=O)[C@H]3CCN(C#N)C3)sc2C1 [Example 189, (S)—N-(5-acetyl-4,5,6,7-tetrahydrothiazolo[5,4-c]pyridin-2-yl)-1-cyanopyrrolidine-3-carboxamide]"
12,1000 to 10000,"N#CN1CC[C@H](C(=O)Nc2cc(-c3ccnc4nccn34)ccn2)C1 [Example 252, (S)-1-cyano-N-(4-(imidazo[1,2-a]pyrimidin-5-yl)pyridin-2-yl)pyrrolidine-3-carboxamide]"
13,< 1000,"N#CN1CC[C@H](C(=O)Nc2ncc(-c3ccc(C(F)(F)F)cc3)s2)C1 [Example 68, (S)-1-cyano-N-(5-(4-(trifluoromethyl)phenyl)thiazol-2-yl)pyrrolidine-3-carboxamide]"
14,< 1000,"COCCNC(=O)c1ccc(-n2cnc(NC(=O)[C@H]3CCN(C#N)C3)c2)cc1 [Example 158, (S)-1-cyano-N-(1-(4-((2-methoxyethyl)carbamoyl)phenyl)-1H-imidazol-4-yl)pyrrolidine-3-carboxamide]"
15,< 1000,"C[C@H]1[C@@H](C(=O)Nc2cc3cc(-c4cn[nH]c4)ccc3cn2)CCN1C#N [Example 266, (2S,3S)—N-(6-(1H-pyrazol-4-yl)isoquinolin-3-yl)-1-cyano-2-methylpyrrolidine-3-carboxamide]"
